Reference: patent US4753938A, “Condensed as-triazine derivatives” (Richter Gedeon Vegyeszeti Gyar Rt., priority 1983, dated 1988)

Tests used:
[1] = test system: tetrabenazine ptosis on rats; experiment: Antagonism of tetrabenazine ptosis on rats, p.o.; format: in vivo; conditions: Rattus norvegicus, po
Experimental: (§1) (2) Antagonism of Tetrabenazine ptosis on mice and rats, p.o. […] The results are evaluated as follows: on the basis of all the measured data an average ptosis is calculated for each group and the deviation from the average of the control group is expressed in percents (inhibition). The ED50 values are calculated from the data thus obtained.

[2] = test system: yohimbine toxicity on mice; experiment: Potentiation of yohimbine toxicity on mice (method of Quinton); format: in vivo; conditions: for ED50: Mus musculus, ip, read-out: ED50, potentiation of yohimbine toxicity; for Ther. index, potentiation of yohimbine toxicity: mice
Experimental: (5) Potentiation of yohimbine toxicity on mice
The tests are carried out according to the method of Quinton. Animal groups consisting of 10 mice each are treated with the test compound. After an hour a sublethal dose of yohimbine is administered intraperitoneally at a rate of 20 ml./kg. The killed animals are counted after 1 and 24 hours, respectively.

[3] = Acute toxicity on mice, oral (LD50, Litchfield-Wilcoxon, 7 days observation); conditions: mouse, in vivo
Experimental: (1) Acute toxicity on mice
The test is carried out on male and female white mice belonging to the CFLP strain and weighing 18-22 g. The test compound is administered orally and the animals are observed for a period of 7 days. In the groups for each dose half of the animals are male and the other half are female. The animals are kept in a plastic box (39×12×12 cm) on scrapings litter at room temperature. The mice receive standard fodder and tap water ad libitum. The toxicity data are determined by the method of Litchfield-Wilcoxon.
The test compounds are used in a suspension formed with 0.5% carboxymethyl cellulose.

reserpine ptosis on mice = experiment: Antagonism of reserpine ptosis on mice, p.o.; format: in vivo; conditions: for ED50: Mus musculus, po, 1 h, 60 minutes after 6 mg./kg. reserpine s.c.
Experimental: (3) Antagonism of reserpine ptosis on mice, p.o. Animal groups consisting of 10 mice each are treated subcutaneously with 6 mg./kg. of reserpine. The test compound is administered orally after 60 minutes. The animals showing a ptosis are counted after 60 and 120 minutes. The evaluation is carried out as described in connection with the previous ptosis test No. 2.

reserpine ptosis on rats = experiment: Antagonism of reserpine ptosis on rats, p.o.; format: in vivo; conditions: Rattus norvegicus, po, 1 h, 60 minutes after 2.5 mg./kg. reserpine s.c.
Experimental: (4) Antagonism of reserpine ptosis on rats, p.o. […] The animals showing ptosis are counted until the effect decreases. The evaluation is carried out as described in connection with the previous ptosis test (test 2).

[4] = test system: tetrabenazine ptosis on mice; experiment: Antagonism of tetrabenazine ptosis on mice, p.o.; format: in vivo; conditions: for ED50: Mus musculus, po, 0.5 h, 50 mg./kg. tetrabenazine i.p. 30 minutes later
Experimental: as §1

[5] = test system: aconitine-induced ECG changes in rats; experiment: Antiarrhythmial effect on rats (aconitine, modified method of Marmo et al.); format: in vivo; conditions: aconitine 75 μg./kg. i.v.
Experimental: (6) Antiarrhythmial effect on rats
The test is carried out according to the modified method of Marmo et al. The test animals are narcotized with ethyl urethane (1.2 g./kg. i.p.). Aconitine is administered intravenously in the form of a bolus injection in a dose of 75 μg./kg. The changes of ECG are followed in standard II outlet 5 minutes after the administration of aconitine. The changes observed are evaluated with the aid of a scale from 0 to 5 points. The test compound is administered either intravenously 2 minutes before the addition of aconitine, or orally 1 hour before the aconitine administration.

[6] = test system: tremorine-induced tremor in mice; experiment: Antitremorine effect on mice; format: in vivo
Experimental: (7) Antitremorine effect on mice 20 mg./kg. of tremorine are administered i.p. to mice whereupon after 45 minutes the induced characteristic tremor is registered. The test compounds are administered orally 1 hour before the addition of tremorine.

With `OC1(c2ccc(Cl)cc2)[N-]C=N[n+]2ccc3ccccc3c21` (stereo not drawn) [Compound A, 1-(4-chloro-phenyl)-1-hydroxy-as-triazino[6,1-a]isoquinoline-5-ium-2-(1H)-ide] the ED50 [1] was 7 mg/kg, the ED50 [2] was 5 mg/kg and the “Ther. index, potentiation of yohimbine toxicity” value (“Ther. index, potentiation” below) [2] was 110. For the same molecule, the LD50 at 168 h [3] was 550 mg/kg, the “Ther. index, reserpine ptosis” value (reserpine ptosis on mice) was 19.6 and the ED50 (reserpine ptosis on mice) was 28 mg/kg. For the same molecule, the ED50 (reserpine ptosis on rats) was 28 mg/kg, the “Ther. index, tetrabenazine ptosis” value [4] was 3667 and the ED50 [4] was 0.15 mg/kg. The “Inhibition, antiarrhythmial effect” value ([5]; dose 1 mg./kg.) was 39.6%.
For `Clc1ccc(-c2ncn[n+]3ccc4ccccc4c23)cc1` [Reference compound D, 1-(4-chloro-phenyl)-as-triazino[6,1-a]isochinolinium-bromide, reference compound], the “ED50, antitremorine effect” value ([6]; p.o. 1 hour before tremorine 20 mg./kg. i.p.) was “inactive”, the “Ther. index, reserpine ptosis” value (reserpine ptosis on mice) was “below 5.0” and the ED50 (reserpine ptosis on mice) was over 120 mg/kg. For the same molecule, the ED50 (reserpine ptosis on rats) was 60 mg/kg and the “Ther. index, tetrabenazine ptosis” value [4] was 188.
For `COC1(c2ccc(Cl)cc2)[N-]C=N[n+]2ccc3ccccc3c21` (stereo not drawn) [Compound B, 1-(4-chloro-phenyl)-1-methoxy-as-triazino[6,1-a]isoquinoline-5-ium-2-(1H)-ide], the ED50 [1] was 0.6 mg/kg, the ED50 [2] was 1.2 mg/kg and the “Ther. index, potentiation” value [2] was 350. For the same molecule, the ED50 ([6]; Mus musculus, po, p.o. 1 hour before tremorine 20 mg./kg. i.p.) was 40 mg/kg, the “Ther. index, antitremorine effect” value ([6]; p.o.) was 10.5 and the LD50 at 168 h [3] was 420 mg/kg. The “Ther. index, reserpine ptosis” value (reserpine ptosis on mice) was 280.0, the ED50 (reserpine ptosis on mice) was 1.5 mg/kg and the ED50 (reserpine ptosis on rats) was 34 mg/kg. For the same molecule, the “Ther. index, tetrabenazine ptosis” value [4] was 1680, the ED50 [4] was 0.25 mg/kg and the “Inhibition, antiarrhythmial effect” value ([5]; dose 1 mg./kg.) was 44.3%.
In the case of `O=c1nc(-c2ccc(Cl)cc2)c2c3ccccc3cc[n+]2[n-]1` [Compound C, 1-(4-chloro-phenyl)-as-triazino[6,1-a]isoquinoline-5-ium-2-(1H)-ide-3-one], the LD50 at 168 h ([3]; mice, p.o., 7 days observation) is reported as 2000 mg/kg, the “Ther. index, tetrabenazine ptosis” value [4] is reported as 87 and the ED50 [4] is reported as 23 mg/kg.
With `CCN(CC)CC(=O)Nc1c(C)cccc1C` [Lidocain, α-diethylamino-2,6-dimethyl-acetanilide, reference compound] the “Inhibition, antiarrhythmial effect” value ([5]; dose 4 mg./kg.) was 23.4%.
In the case of `CN(C)CCC=C1c2ccccc2CCc2ccccc21` [Amitriptyline, N,N-dimethyl-3-[dibenzo[a,d]-cycloheptadiene-5-ylidene]propylamine, reference compound], the ED50 [2] is reported as 12.5 mg/kg, the “Ther. index, potentiation” value [2] is reported as 18 and the “Ther. index, reserpine ptosis” value (reserpine ptosis on mice) is reported as 3.45. For the same molecule, the ED50 (reserpine ptosis on mice) was 65 mg/kg and the “Ther. index, tetrabenazine ptosis” value [4] was 19.
